Measurements reported in patent US20220193272A1, “Bleeding Detection Method” (Ethicon, Inc., priority 2020, published 2022).
Entries after “also recorded” stand apart in the source; their conditions may differ. Peptide text beside a SMILES is read from it. * marks the point of attachment. AMC = Cc1cc(=O)oc2cc(N*)ccc12; Bz = O=C(c1ccccc1)*

Assays:
thrombin [1] = target: T1, thrombin (Homo sapiens, UniProt P00734); experiment: Thrombin activity on chromogenic substrate in solution (dip stick standard tubes); format: biochemical; conditions: 0.2 mL of 2 mg/mL substrate + 1.8 mL water, about 2 min at room temperature
T1 construct: purchased EVICEL® fibrin sealant kit product code 3905
Procedure: A “dip stick” can be dabbed onto a tissue surface that is suspected of bleeding (FIG. 2). The end of the dip stick can then be placed into a solution containing the visualization agent (chromogenic substrate). The amount of the thrombin present in the dip stick is determined by comparison with a standard curve obtained by running similar tests with known thrombin concentrations.
For example, 0.2 mL of the 2 mg/mL chromogenic substrate was combined with 1.8 mL of water in a […] in 2 borosilicate glass tubes. The solution was gently mixed to distribute the substrate. A third tube was filled with 2 mL of water as an untreated control. To one of the tubes with the diluted substrate, 100 uL of 1000 IU/mL thrombin was added and 10 uL was added to the other tube. After about 2 min at room temperature, a photo was captured of the tubes.
The tube with water is shown as a reference. The intensity of the color change reflected the amount of thrombin.

thrombin [2] = target: T1, thrombin; experiment: Detection of thrombin activity on chromogenic substrate coated onto cellulose matrix; format: biochemical; conditions: 1 mL of 2 mg/mL substrate sprayed on matrix; EVICEL thrombin applied; 30 sec at room temperature; dihydrochloride
Procedure: S-2238 chromogenic thrombin substrate ((H-D-Phenylalanyl-L-pipecolyl-L-arginine-p-nitroaniline dihydrochloride) which is available from Chromgenix, Instrumentation Laboratory Company, Bedford, Mass., USA catalog number: 82032439), 25 mg, was dissolved in 12.5 mL of water. The resulting concentration was 2 mg/mL (25 mg in 12.5 mL). 1 mL of 2 mg/mL of the chromogenic substrate was sprayed onto one side of a white cellulose matrix (paper towel Scott C-Fold) approx. 4 in×6 cm in using the EVICEL® ASA tip (product code 3921S). The other side was not coated or sprayed with the substrate.
A kit of EVICEL® (product code 3905) was thawed in a 37° C. water bath for 5 min. […] This was repeated on the substrate coated side and also applied in duplicate on the non-substrate coated side.
As a control, thrombin was applied to the non-coated side of the matrix and no color changed was observed.

thrombin [3] = target: T1, thrombin; experiment: Detection of chromogenic substrate product in plasma activated by thromboplastin reagent; format: biochemical; conditions: 0.4 mL PNP + 0.2 mL thromboplastin reagent with calcium + 0.2 mL of 2 mg/mL substrate; room temperature
Procedure: Plasma has a background color (straw color). To test whether the product of the chromogenic substrate can be detected in plasma, 0.4 mL pooled normal plasma (PNP from George King Biomedical) was activated by a thromboplastin reagent (0.2 mL, Neoplastin CL plus product number 00375) with calcium to allow thrombin generation.
Either 0.2 mL saline (as a control) or 0.2 mL of 2 mg/mL of the chromogenic substrate was added to the tube and mixed on the tube rocker.
Evidence of clot formation was present after approx. 30 sec at room temperature. In view of the presence of fibrinogen in plasma, complete clot formation, i.e. solid/stable clot, occurred at approx. 2 min at room temperature.

thrombin [4] = target: T1, thrombin; experiment: Detection of thrombin in solution with fluorescent substrates; format: biochemical
Procedure: 1. 2 mL of 0, 10 IU/mL and 100 IU/mL thrombin in saline (none, low, and high thrombin) was prepared in duplicates and tubes were labeled accordingly. Stock of EVICEL® thrombin is about 1000 IU/mL.
2. A defined amount of thrombin substrate was added to thrombin solutions as follows and fluorescence of the mixture was evaluated. The substrate stock solutions were diluted 1:10 in Tris Buffered saline (TBS) buffer (180 uL TBS and 20 uL of stock substrate solution). TBS buffer comprises 20 mM Tris and 150 mM sodium chloride, and is adjusted to pH 7.4. 0.05 mL of the diluted stock solution (1:10 dilution) was added to the 2 mL of thrombin prepared in step 1, mixed at room temperature, and incubated for about 3 mins.
3. Images of tubes were captured while shining with light (using various light emitting sources) and responses were compared for different amounts of thrombin.

thrombin [5] = target: T1, thrombin; experiment: Detection of thrombin on a surface (cellulose matrix) with fluorogenic substrates; format: biochemical; conditions: approx. 60 min after spraying; 365 nm flashlight only; after moving the matrix out of its original position
Procedure: 2 mL solutions of 0, 10 IU/mL and 100 IU/mL thrombin in saline (none, and low and high thrombin) were prepared using a stock solution of EVICEL® thrombin of about 1000 IU/mL. 1 mL of each thrombin dilution was sprayed onto white cellulose matrix (paper towel Scott C-Fold) in a designated area.
Immediately a defined amount of thrombin substrate, prepared as follows, was sprayed on the thrombin and coated cellulose matrix and fluorescence of the mixture was evaluated. The substrate stock solutions were diluted 1:10 in TBS (using 900 uL TBS and 100 uL of stock substrate solution). 1.0 mL of the diluted stock solution (1:10 dilution) was sprayed across all three regions of the cellulose matrix coated with thrombin at different levels.
Images of cellulose matrix under various lighting conditions (with various light sources) were captured and the response was compared for different amounts of thrombin and substrates. The Experiments were carried out at room temperature.

thrombin [6] = experiment: In vivo detection of thrombin at bleeding site, canine model with liver and spleen abrasions
Procedure: In this in vivo study, the ability to detect thrombin on a surface in a live animal after creating a bleeding defect was assessed in a canine model with liver and spleen abrasions.
Diffuse/oozing bleeding abrasion defect was created using cautery tip cleaning pad.
0.5 mL of Sigma fluorogenic substrate (Stock solution 5 mg/mL concentration in DMSO protected from light) was sprayed onto bleeding site and visualized with flashlight (356 nm) 2-3 min after application.

thrombin [7] = target: T1, thrombin; experiment: Detection of thrombin generated in plasma with fluorogenic substrates; format: biochemical
Procedure: (§1) Pooled normal plasma (PNP) was purchased from George King Biomedical was thawed at 37 C for 5 min. 0.5 mL of PNP was aliquoted into 3-10×75 mm borosilicate glass tubes. To each to glass tube, 0.10 mL stock fluorescent substrate or 0.10 mL stock TBS was added. Tubes were labeled accordingly.
(§2) 1.0 mL of PT reagent (Diagnostica Stago, STA Neoplastine Cl Plus containing calcium) was dispensed into the three tubes.
Images of tubes were captured while using shining light (using various light sources) and response was compared for different substrates.

thrombin [8] = target: T1, thrombin; experiment: Detection of thrombin in solution, repeated with higher amounts of substrate; format: biochemical; set-up: key to fluorescence signal, relative rank: +++: strongest fluorescence signal; ++: signal was greater; +: fluorescence signal was lowest; conditions: 100 uL at 5 mg/mL in DMSO [500 ug total substrate], 100 IU/mL thrombin, approx. 5 min
Procedure: 100 IU/mL of thrombin was used.
To 1.0 mL of 100 IU/mL thrombin in saline, 100 uL of Sigma substrate at 5 mg/mL in DMSO was added [500 ug total substrate].
To 1.0 mL of 100 IU/mL thrombin in saline, 100 uL of HTI substrate diluted in TBS at 0.25 mg/mL (50 uL HTI manufacture's stock and 1.5 mL TBS, i.e. 1:30 dilution) was added [25 ug total substrate].
To 1.0 mL of 100 IU/mL thrombin in saline, 10 uL of HTI manufacture's stock (7.5 mg/mL in DMSO) was added [75 ug total substrate]
Images of tubes were captured under various lighting conditions (using various light sources) and responses were compared.
The experiments were carried out at room temperature.

pooled normal plasma = experiment: Clotting of pooled normal plasma with PT reagent in presence of substrate; format: biochemical; conditions: 0.5 mL PNP + 0.10 mL stock (5 mg/mL in DMSO) + 1.0 mL PT reagent; room temperature
Procedure: as §1, §2
The blank/TBS control clotted in approx. 10 sec (as expected for a PT clotting time).

Compound	coloration of tube (thrombin [1]; 10 uL of 1000 IU/mL thrombin)	coloration of tube (thrombin [1]; 100 uL of 1000 IU/mL thrombin)	coloration on substrate coated side of cellulose matrix (thrombin [2])	yellow coloration/hue of clotted plasma compared with the saline control (thrombin [3])	time within which all of the substrate was cleaved (thrombin [4]; 100 IU/mL thrombin, no change in intensity between 3 min and 60 min)	fluorescence (thrombin [4]; approx. 3 min, ambient overhead lighting and 365 nm flashlight, 100 IU/mL thrombin)	color change (thrombin [4]; approx. 3 min, ambient overhead lighting only, thrombin 100, 10 and 0 IU/mL)	fluorescence (thrombin [4]; approx. 60 min, 365 nm flashlight only, 100 IU/mL thrombin)	fluorescence on the surface underneath the cellulose matrix (thrombin [5])	fluorescence signal at bleeding site (thrombin [6]; 0.5 mL of 5 mg/mL in DMSO sprayed onto bleeding site, flashlight (356 nm) 2-3 min after application, no exogenous thrombin added)	detection of bleeding in a liver abrasion model (thrombin [6]; canine, sprayed onto bleeding site)	color change in plasma (thrombin [7]; 5 min after combining PNP, substrate and PT reagent, ambient overhead lighting only)	fluorescence signal in plasma (thrombin [7]; approx. 5 min, 365 nm flashlight only, 0.10 mL stock (Sigma 5 mg/mL in DMSO; HTI 0.25 mg/mL in TBS))	fluorescence in plasma (thrombin [7]; approx. 5 min, ambient overhead lighting and 365 nm flashlight, 0.10 mL stock (Sigma 5 mg/mL in DMSO))	fluorescence signal, relative rank (thrombin [8]; 365 nm flashlight only)	fluorescence signal (thrombin [8]; ambient overhead lighting and 365 nm flashlight)	time sample remained fluid before clotting (pooled normal plasma)
Cl.Cl.NC(N)=NCCC[C@H](NC(=O)[C@@H]1CCCCN1C(=O)[C@H](N)Cc1ccccc1)C(=O)Nc1ccc([N+](=O)[O-])cc1 [S-2238, H-D-Phenylalanyl-L-pipecolyl-L-arginine-p-nitroaniline dihydrochloride]	faint yellow coloration	yellow coloration	yellow coloration (dark streaks) was evident; also recorded: change in coloration was evident	significantly stronger	–	–	–	–	–	–	–	–	–	–	–	–	–
Cc1cc(=O)oc2cc(NC(=O)[C@H](CCCN=C(N)N)NC(=O)[C@@H](NC(=O)[C@H](Cc3ccccc3)NC(=O)c3ccccc3)C(C)C)ccc12 [Sigma substrate] (Bz-Phe-Val-Arg-{AMC})	–	–	–	–	≤ 3 min	displaying fluorescence	no color change observed	displaying fluorescence	spots of fluorescence could be seen	could be detected	enabled detection of bleeding	no color change was observed	strong fluorescence signal	strong fluorescence	+++	strongest	approx. 3 min
